From US20250082674A1, “METHODS OF TREATING COPPER METABOLISM-ASSOCIATED DISEASES OR DISORDERS” (priority 2021, published 2025)
“And” between values parts separate entries of the source, which are not always exact repeats. Equal entries are not always repeated. Where two headings read alike, the source gives them in different places.

Assays:
copper [1] = experiment: Study 301: plasma copper pharmacodynamics (dNCC, LBC, plasma total copper; daily mean AUEC); type: in vivo, human; conditions: for Mean Daily dNCC AUEC0-48w, Mean (SD): Full Analysis Set; for Mean Daily dNCC AUEC0-48w, Mean (SD) / Mean Daily dNCC AUEC0-48w, LSM (SE): multiple imputation
Text: FIG. 1 provides a schematic view of the study design. […] This study is referred throughout as Study 301.
The primary endpoint integrated copper mobilization and sequestration (i.e., copper control) throughout the 48-week Primary Treatment Period by assessment of daily mean area under the effect-time curve (AUEC) of directly measured non-ceruloplasmin-bound copper (dNCC) concentration. […] Measurement of dNCC in plasma is highly sensitive and accurate, requiring no special formulas or assumptions. As proposed, dNCC AUEC0-48W is an indirect measure of copper mobilization and sequestration.
This assessment is also applicable to SoC treatments. In addition, plasma Cp, CpC, plasma total copper, and LBC were measured with AUEC calculated for plasma total copper and LBC.
Pharmacodynamics: Blood samples were collected to directly measure plasma total copper, PUF copper, dNCC, and LBC. Calculations may be performed for cNCC and cNCCconnected, the latter of which is non-ceruloplasmin-bound and non-molybdenum-albumin-bound copper.
The AUEC for dNCC concentration was calculated using the trapezoidal rule, and then divided by number of days to yield a mean daily AUEC plasma dNCC concentration from baseline to Week 48 (expressed as μmol/L and described as AUEC0-48W).
Tests were performed at a significance level of 0.05 (2-sided).

copper [2] = conditions: Study 301, FIG. 23, versus SoC chelator therapy
Text: Biomarkers and Biobank Samples: Blood samples were collected to measure plasma Cp and CpC. Urine samples were collected for analysis of urine copper and molybdenum. Additional biomarker or biobank samples were collected for the analysis of molybdenum and/or copper species associated with treatment.

^64Cu in blood = test system: ^64Cu in blood
Method: 15 minutes after intravenous administration of ^64Cu, a dynamic PET-MR scan was performed, followed by additional scans at 1, 2, 6, 20, 48, 54, and 68 hours. Venous blood samples were collected for quantitation of radioactivity at multiple time points.

[3] = Study 301, Cohort 1, lower part of Table 5
[4] = Study 301, Cohort 2, lower part of Table 5
[5] = Study 301, Overall, lower part of Table 5

Bis-choline tetrathiomolybdate [BC-TTM]
AUEC(0-48 week) LBC, Mean (copper [1]; Study 301, Adolescent): 1.5 mmol/L
AUEC(0-48 week) LBC, Median (copper [1]; Study 301, Adolescent): 1.2 mmol/L
AUEC(0-48 week) PTC (plasma total copper), Mean (copper [1]; Study 301, Adolescent): 7.5 mmol/L
AUEC(0-48 week) PTC (plasma total copper), Median (copper [1]; Study 301, Adolescent): 5.4 mmol/L
AUEC(0-48 week) dNCC, Mean (copper [1]; Study 301, Adolescent): 2.7 mmol/L
AUEC(0-48 week) dNCC, Median (copper [1]; Study 301, Adolescent): 2.3 mmol/L
AUEC(0-48 week) LBC, Mean (copper [1]; Study 301, Adult): 1.8 mmol/L
AUEC(0-48 week) LBC, Median (copper [1]; Study 301, Adult): 1.2 mmol/L
AUEC(0-48 week) PTC (plasma total copper), Mean (copper [1]; Study 301, Adult): 7.8 mmol/L
AUEC(0-48 week) PTC (plasma total copper), Median (copper [1]; Study 301, Adult): 7.3 mmol/L
AUEC(0-48 week) dNCC, Mean (copper [1]; Study 301, Adult): 3.2 mmol/L
AUEC(0-48 week) dNCC, Median (copper [1]; Study 301, Adult): 2.2 mmol/L
Mean Daily dNCC AUEC0-48w, LSM Diff (SE), BC-TTM vs SoC (copper [1]; Study 301, Cohort 1): 1.64 (0.254) μmol/L
Mean Daily dNCC AUEC0-48w, Mean (SD) (copper [1]; Study 301, Cohort 1 (prior SoC >28 days)): 2.68 (2.118) μmol/L
Mean Daily dNCC AUEC0-48w, LSM (SE) (copper [1]; Study 301, Cohort 1, ANCOVA): 2.50 (0.150) μmol/L
Mean Daily dNCC AUEC0-48w, Between Group LSM Diff (SE) (copper [1]; [3]): 1.72 (0.277) μmol/L
Mean Daily dNCC AUEC0-48w, Within Group LSM (SE) (copper [1]; [3]): 2.59 (0.165) μmol/L
Mean Daily dNCC AUEC0-48w, LSM Diff (SE), BC-TTM vs SoC (copper [1]; Study 301, Cohort 2): 3.79 (0.584) μmol/L
Mean Daily dNCC AUEC0-48w, Mean (SD) (copper [1]; Study 301, Cohort 2 (treatment-naïve or SoC ≤28 days)): 4.58 (2.526) μmol/L
Mean Daily dNCC AUEC0-48w, LSM (SE) (copper [1]; Study 301, Cohort 2, ANCOVA): 4.76 (0.319) μmol/L
Mean Daily dNCC AUEC0-48w, Between Group LSM Diff (SE) (copper [1]; [4]): 3.68 (0.568) μmol/L
Mean Daily dNCC AUEC0-48w, Within Group LSM (SE) (copper [1]; [4]): 4.64 (0.315) μmol/L
time of peak of plasma dNCC (copper [1]; Study 301, FIG. 2): 4 to 6 weeks
Mean Daily dNCC AUEC0-48w, LSM Diff (SE), BC-TTM vs SoC (copper [1]; Study 301, Overall): 2.18 (0.244) μmol/L
Mean Daily dNCC AUEC0-48w, LSM (SE) (copper [1]; Study 301, Overall, ANCOVA): 3.18 μmol/L and 3.18 (0.167) μmol/L
Mean Daily dNCC AUEC0-48w, Mean (SD) (copper [1]; Study 301, Overall): 3.12 (2.347) μmol/L
Mean Daily dNCC AUEC0-48w, Between Group LSM Diff (SE) (copper [1]; [5]): 2.12 (0.253) μmol/L
Mean Daily dNCC AUEC0-48w, Within Group LSM (SE) (copper [1]; [5]): 3.06 (0.179) μmol/L
24-hour urinary copper (copper [2]): lower
Intravenously injected ^64Cu in the blood (^64Cu in blood; Post (after BC-TTM treatment), 5 sec): 0.05
Intravenously injected ^64Cu in the blood (^64Cu in blood; Post (after BC-TTM treatment), 15 sec): 1.02
Intravenously injected ^64Cu in the blood (^64Cu in blood; Post (after BC-TTM treatment), 60 sec): 4.16
Intravenously injected ^64Cu in the blood (^64Cu in blood; Post (after BC-TTM treatment), 120 sec): 3.47 (4.65)
Intravenously injected ^64Cu in the blood (^64Cu in blood; Post (after BC-TTM treatment), 200 sec): 5.01
Intravenously injected ^64Cu in the blood (^64Cu in blood; Post (after BC-TTM treatment), 300 sec): 6.99
Intravenously injected ^64Cu in the blood (^64Cu in blood; Post (after BC-TTM treatment), 600 sec): 7.03
Intravenously injected ^64Cu in the blood (^64Cu in blood; Post (after BC-TTM treatment), 1 hour): 5.43
Intravenously injected ^64Cu in the blood (^64Cu in blood; Post (after BC-TTM treatment), 2 hours): 5.09
Intravenously injected ^64Cu in the blood (^64Cu in blood; Post (after BC-TTM treatment), 6 hours): 2.54
Intravenously injected ^64Cu in the blood (^64Cu in blood; Post (after BC-TTM treatment), 20 hours): 0.77 (0.41)
Intravenously injected ^64Cu in the blood (^64Cu in blood; Post (after BC-TTM treatment), 48 hours): 0.51
Intravenously injected ^64Cu in the blood (^64Cu in blood; Post (after BC-TTM treatment), 54 hours): 0.42
Intravenously injected ^64Cu in the blood (^64Cu in blood; Post (after BC-TTM treatment), 68 hours): 0.42
Intravenously injected ^64Cu in the blood (^64Cu in blood; Pre (before BC-TTM treatment), 5 sec): 0.00
Intravenously injected ^64Cu in the blood (^64Cu in blood; Pre (before BC-TTM treatment), 15 sec): 0.00
Intravenously injected ^64Cu in the blood (^64Cu in blood; Pre (before BC-TTM treatment), 60 sec): 5.30
Intravenously injected ^64Cu in the blood (^64Cu in blood; Pre (before BC-TTM treatment), 120 sec): 5.15 (4.28)
Intravenously injected ^64Cu in the blood (^64Cu in blood; Pre (before BC-TTM treatment), 200 sec): 5.13
Intravenously injected ^64Cu in the blood (^64Cu in blood; Pre (before BC-TTM treatment), 300 sec): 5.88
Intravenously injected ^64Cu in the blood (^64Cu in blood; Pre (before BC-TTM treatment), 600 sec): 4.35
Intravenously injected ^64Cu in the blood (^64Cu in blood; Pre (before BC-TTM treatment), 1 hour): 0.78
Intravenously injected ^64Cu in the blood (^64Cu in blood; Pre (before BC-TTM treatment), 2 hours): 0.64
Intravenously injected ^64Cu in the blood (^64Cu in blood; Pre (before BC-TTM treatment), 6 hours): 0.42
